Values after ≈ are worked out from the molar mass of the structure shown. Active and inactive are the calls of the source. No cut-off for these calls is given here.
What was measured:
Staphylococcus aureus [1] = experiment: Induction of drug resistance in Staphylococcus aureus ATCC29213 assessed as reduction in bacterial growth at 0.5 times MIC measured after 24 hr; format: functional, organism-based
Staphylococcus aureus [2] = experiment: Antibacterial activity against methicillin-resistant Staphylococcus aureus NCTC 10442 assessed as reduction in bacterial growth in presence of potassium salt; format: functional
Staphylococcus aureus [3] = experiment: Antibacterial activity against methicillin-resistant Staphylococcus aureus N315 assessed as reduction in bacterial growth in presence of zinc salt; format: functional
Staphylococcus aureus [4] = experiment: Antibacterial activity against methicillin-resistant Staphylococcus aureus NCTC 10442 assessed as reduction in bacterial growth in presence of magnesium salt; format: functional
HEK293 [5] = experiment: Cytotoxicity against human HEK293 cells assessed as reduction in cell viability at 12.5 ug/ml after 24 hrs by CCK8 assay; format: cell-based; conditions: hek293, 24 h, at 12.5 µg/mL
Staphylococcus aureus [6] = experiment: In vivo antibacterial activity against Staphylococcus aureus ATCC29213 in mouse bacterial keratitis model assessed as log reduction in bacterial load in infected cornea at 0.5%,TOP after 24 hour infection; format: functional, organism-based
Staphylococcus aureus [7] = experiment: Antibacterial activity against methicillin-resistant Staphylococcus aureus N315 assessed as reduction in bacterial growth in presence of sodium salt; format: functional
Staphylococcus aureus [8] = experiment: Antibacterial activity against methicillin-resistant Staphylococcus aureus NCTC 10442 assessed as reduction in bacterial growth in presence of calcium salt; format: functional
Staphylococcus aureus [9] = experiment: Antibacterial activity against methicillin-resistant Staphylococcus aureus N315 assessed as reduction in bacterial growth in presence of potassium salt; format: functional
[10] = Cytotoxicity against mouse NCTC clone 929 cells assessed as reduction in cell viability at 3.125 ug/ml after 24 hrs by CCK8 assay; format: cell-based; conditions: nctc clone 929, 24 h, at 3.125 µg/mL
HEK293 [11] = experiment: Cytotoxicity against human HEK293 cells assessed as reduction in cell viability at 3.125 ug/ml after 24 hrs by CCK8 assay; format: cell-based; conditions: hek293, 24 h, at 3.125 µg/mL
Staphylococcus aureus [12] = experiment: Antibacterial activity against Staphylococcus aureus ATCC29213 assessed as reduction in bacterial growth in presence of zinc salt; format: functional
J774.A1 [13] = experiment: Cytotoxicity against mouse J774.A1 cells assessed as reduction in cell viability at 12.5 ug/ml after 24 hrs by CCK8 assay; format: cell-based; conditions: j774.a1, 24 h, at 12.5 µg/mL
Staphylococcus aureus [14] = experiment: Antibacterial activity against Staphylococcus aureus ATCC29213 assessed as reduction in bacterial growth in presence of ferric salt; format: functional
[15] = Cytotoxicity against mouse NCTC clone 929 cells assessed as reduction in cell viability at 25 ug/ml after 24 hrs by CCK8 assay; format: cell-based; conditions: nctc clone 929, 24 h, at 25 µg/mL
HEK293 [16] = experiment: Cytotoxicity against human HEK293 cells assessed as reduction in cell viability at 25 ug/ml after 24 hrs by CCK8 assay; format: cell-based; conditions: hek293, 24 h, at 25 µg/mL
Staphylococcus aureus [17] = experiment: Antibacterial activity against methicillin-resistant Staphylococcus aureus N315 assessed as reduction in bacterial growth; format: functional
Staphylococcus aureus [18] = experiment: Antibacterial activity against methicillin-resistant Staphylococcus aureus NCTC 10442 assessed as reduction in bacterial growth in presence of zinc salt; format: functional
Staphylococcus aureus [19] = experiment: Antibacterial activity against methicillin-resistant Staphylococcus aureus NCTC 10442 assessed as reduction in bacterial growth in presence of ferric salt; format: functional
Staphylococcus aureus [20] = experiment: Antibacterial activity against Staphylococcus aureus ATCC29213 assessed as reduction in bacterial growth; format: functional
Staphylococcus aureus [21] = experiment: Antibacterial activity against Staphylococcus aureus ATCC29213 assessed as reduction in bacterial growth in presence of potassium salt; format: functional
[22] = Cytotoxicity against mouse NCTC clone 929 cells assessed as reduction in cell viability at 50 ug/ml after 24 hrs by CCK8 assay; format: cell-based; conditions: nctc clone 929, 24 h, at 50 µg/mL
Staphylococcus aureus [23] = experiment: Antibacterial activity against methicillin-resistant Staphylococcus aureus NCTC 10442 assessed as reduction in bacterial growth in presence of sodium salt; format: functional
Staphylococcus aureus [24] = experiment: Antibacterial activity against Staphylococcus aureus ATCC29213 assessed as reduction in bacterial growth in presence of magnesium salt; format: functional
Staphylococcus aureus [25] = experiment: Antibacterial activity against methicillin-resistant Staphylococcus aureus NCTC 10442 assessed as reduction in bacterial growth; format: functional
[26] = Cytotoxicity against mouse NCTC clone 929 cells assessed as reduction in cell viability at 6.25 ug/ml after 24 hrs by CCK8 assay; format: cell-based; conditions: nctc clone 929, 24 h, at 6.25 µg/mL
Staphylococcus aureus [27] = experiment: Antibacterial activity against methicillin-resistant Staphylococcus aureus N315 assessed as reduction in bacterial growth in presence of magnesium salt; format: functional
Staphylococcus aureus [28] = experiment: Antibacterial activity against Staphylococcus aureus ATCC29213 assessed as reduction in bacterial growth in presence of calcium salt; format: functional
J774.A1 [29] = experiment: Cytotoxicity against mouse J774.A1 cells assessed as reduction in cell viability at 3.125 ug/ml after 24 hrs by CCK8 assay; format: cell-based; conditions: j774.a1, 24 h, at 3.125 µg/mL
Staphylococcus aureus [30] = experiment: Antibacterial activity against methicillin-resistant Staphylococcus aureus NCTC 10442 assessed as reduction in bacterial growth in presence of ferrous salt; format: functional
Staphylococcus aureus [31] = experiment: Antibacterial activity against Staphylococcus aureus ATCC29213 assessed as reduction in bacterial growth in presence of ferrous salt; format: functional
Staphylococcus aureus [32] = experiment: Bactericidal activity against Staphylococcus aureus NCTC 10442 assessed as log reduction in bacterial growth at 1X MIC measured within 24 hr by time-kill kinetic assay; format: functional
Staphylococcus aureus [33] = experiment: Bactericidal activity against Staphylococcus aureus NCTC 10442 assessed as log reduction in bacterial growth at 2X MIC measured within 24 hr by time-kill kinetic assay; format: functional
J774.A1 [34] = experiment: Cytotoxicity against mouse J774.A1 cells assessed as reduction in cell viability at 25 ug/ml after 24 hrs by CCK8 assay; format: cell-based; conditions: j774.a1, 24 h, at 25 µg/mL
Staphylococcus aureus [35] = experiment: Antibacterial activity against methicillin-resistant Staphylococcus aureus N315 assessed as reduction in bacterial growth in presence of ferrous salt; format: functional
Staphylococcus aureus [36] = experiment: Bactericidal activity against Staphylococcus aureus NCTC 10442 assessed as log reduction in bacterial growth at 8X MIC measured within 0.5 hr by time-kill kinetic assay; format: functional
Escherichia coli = experiment: Antibacterial activity against Escherichia coli ATCC25922 assessed as reduction in bacterial growth; format: functional
Staphylococcus aureus [37] = experiment: Antibacterial activity against methicillin-resistant Staphylococcus aureus N315 assessed as reduction in bacterial growth in presence of calcium salt; format: functional
Staphylococcus aureus [38] = experiment: Bactericidal activity against Staphylococcus aureus NCTC 10442 assessed as log reduction in bacterial growth at 4X MIC measured within 0.5 hr by time-kill kinetic assay; format: functional; conditions: time hrs <=0.5
J774.A1 [39] = experiment: Cytotoxicity against mouse J774.A1 cells assessed as reduction in cell viability at 50 ug/ml after 24 hrs by CCK8 assay; format: cell-based; conditions: j774.a1, 24 h, at 50 µg/mL
Cell membrane = experiment: Induction of membrane disruption in […] assessed as increase in red fluorescence at 12.48 ug/ml by SYTO 9/PI staining based flourescence microscopy method; format: functional; conditions: dose 12.48 µg/ml
[40] = Cytotoxicity against mouse NCTC clone 929 cells assessed as reduction in cell viability at 12.5 ug/ml after 24 hrs by CCK8 assay; format: cell-based; conditions: nctc clone 929, 24 h, at 12.5 µg/mL
[41] = Hemolytic activity in rabbit erythrocytes assessed as concentration required to cause 50% hemolysis; format: ADME, cell-based, Oryctolagus cuniculus, Erythrocyte
Staphylococcus aureus [42] = experiment: Antibacterial activity against methicillin-resistant Staphylococcus aureus N315 assessed as reduction in bacterial growth in presence of ferric salt; format: functional
HEK293 [43] = experiment: Cytotoxicity against human HEK293 cells assessed as reduction in cell viability at 50 ug/ml after 24 hrs by CCK8 assay; format: cell-based; conditions: hek293, 24 h, at 50 µg/mL
Staphylococcus aureus [44] = experiment: Antibacterial activity against Staphylococcus aureus ATCC29213 assessed as reduction in bacterial growth in presence of sodium salt; format: functional
HEK293 [45] = experiment: Cytotoxicity against human HEK293 cells assessed as reduction in cell viability at 6.25 ug/ml after 24 hrs by CCK8 assay; format: cell-based; conditions: hek293, 24 h, at 6.25 µg/mL
J774.A1 [46] = experiment: Cytotoxicity against mouse J774.A1 cells assessed as reduction in cell viability at 6.25 ug/ml after 24 hrs by CCK8 assay; format: cell-based; conditions: j774.a1, 24 h, at 6.25 µg/mL

What does the source list for `CC(C)=CCC/C(C)=C/Cn1cc(CC(=O)NCCN(CCNC(=N)N)CCNC(=N)N)c2ccccc21`?
Activity (Staphylococcus aureus [1]): inactive; MIC (Staphylococcus aureus [2]): 1.56 µg/mL; MIC (Staphylococcus aureus [3]): 1.56 µg/mL; MIC (Staphylococcus aureus [4]): 1.56 µg/mL; Activity (HEK293 [5]): 84.69%; Activity (Staphylococcus aureus [6]): Active; MIC (Staphylococcus aureus [7]): 1.56 µg/mL; MIC (Staphylococcus aureus [8]): 1.56 µg/mL; MIC (Staphylococcus aureus [9]): 1.56 µg/mL; Activity [10]: 87.85%; Activity (HEK293 [11]): 94.48%; MIC (Staphylococcus aureus [12]): 1.56 µg/mL; Activity (J774.A1 [13]): 85.85%; MIC (Staphylococcus aureus [14]): 1.56 µg/mL; Activity [15]: 71.16%; Activity (HEK293 [16]): 76.79%; MIC (Staphylococcus aureus [17]): 1.56 µg/mL (≈ 2.98 µM); MIC (Staphylococcus aureus [18]): 1.56 µg/mL; MIC (Staphylococcus aureus [19]): 1.56 µg/mL; MIC (Staphylococcus aureus [20]): 1.56 µg/mL (≈ 2.98 µM); MIC (Staphylococcus aureus [21]): 1.56 µg/mL; Activity [22]: 64.79%; MIC (Staphylococcus aureus [23]): 1.56 µg/mL; MIC (Staphylococcus aureus [24]): 1.56 µg/mL; MIC (Staphylococcus aureus [25]): 1.56 µg/mL (≈ 2.98 µM); Activity [26]: 79.43%; MIC (Staphylococcus aureus [27]): 1.56 µg/mL; MIC (Staphylococcus aureus [28]): 1.56 µg/mL; Activity (J774.A1 [29]): 100.34%; MIC (Staphylococcus aureus [30]): 1.56 µg/mL; MIC (Staphylococcus aureus [31]): 1.56 µg/mL; Activity (Staphylococcus aureus [32]): 3 CFU; Activity (Staphylococcus aureus [33]): 3 CFU; Activity (J774.A1 [34]): 77.46%; MIC (Staphylococcus aureus [35]): 1.56 µg/mL; Activity (Staphylococcus aureus [36]): 3 CFU; MIC (Escherichia coli): 12.5 µg/mL (≈ 23.9 µM); MIC (Staphylococcus aureus [37]): 1.56 µg/mL; log reduction (Staphylococcus aureus [38]): 3 log10 CFU/mL; Activity (J774.A1 [39]): 56%; Activity (Cell membrane): Active; Activity [40]: 72.66%; HC50 [41]: 226 µg/mL; MIC (Staphylococcus aureus [42]): 1.56 µg/mL; Activity (HEK293 [43]): 68.26%; MIC (Staphylococcus aureus [44]): 1.56 µg/mL; Activity (HEK293 [45]): 92.66%; Activity (J774.A1 [46]): 95.8%
